{"source": "paper PMC9368227", "about": "“Investigation of Radiotracer Metabolic Stability In Vitro with CYP-Overexpressing Hepatoma Cell Lines” (Cells, 2022)", "key": {"[1]": {"system": "HepG2 CYP1A2", "test": "Competitive coincubation of [18F]1 with competitors, HepG2 CYP1A2", "settings": "1 h; competitor 1 or 10 µM", "method": "(§1) Radio thin-layer chromatography (radio-TLC) was carried out on reversed-phase TLC plates (ALUGRAM RP-18W/UV254 from Macherey-Nagel, Düren, Germany) with a mobile phase of 45% ACN in water containing 0.1% trifluoroacetic acid. The samples (2 µL) were spotted onto the TLC plate. The line of origin and the front line were labeled with 1/5 of the sample activity concentration. To track the Rf value of the intact radiotracer, each TLC was spotted with the intact tracer as reference in the middle. Detection of the activity signals was achieved after 10–30 min development on radioluminographic imaging plates (FUJIFILM, Tokyo, Japan) and subsequent readout with Fuji BAS 5000® or Amersham™ Typhoon™ from GE Healthcare (Uppsala, Sweden). The resulting chromatographic profile was analyzed and integrated with the help of AIDA Image Analysis Software (version 5.1). For data depiction, the fraction of each species (intact radiotracer, metabolite, [^18F]fluoride) was plotted.\n(§2) Incubations were conducted for up to 2 h in a 96-well plate in KHB with a total incubation volume of 50 µL and an ethanol concentration of 0.4%. For the incubation with radiotracers, an activity of 100–200 kBq/well at the start of the experiment was used.\n(§3) Our last interest within this study was to test if the tracer itself could function as an indicator for the conversion of other substrates acting via inhibition of or competition with the CYP enzymes. In this regard, alternative substrates were added to the incubation mixtures with [^18F]1. The investigated substrates covered testosterone, caffeine, progesterone, compound 3, tebufelone, and RWJ63556 [44] (10 µM for all substances). Furthermore, the influence of testosterone on the metabolic turnover of [^18F]1 was investigated over a concentration range of 1–50 µM.\nFigure 7 Coincubation of [^18F]1 and different competitors with (A) HepG2 CYP1A2 and (B) HepG2 CYP2C19. […] Each competitor/inhibitor was incubated with [^18F]1 for 1 h followed by radio-TLC analysis. Activity concentrations of 94–197 kBq/well (1.9–3.9 MBq/mL) were used at start of experiment, which correspond to a concentration of 120–125 nM. Statistical analysis performed with Dunnett’s multiple comparison (post hoc test) according to the intact tracer amount (* p < 0.05; *** p < 0.001; **** p < 0.0001; n = 4)."}, "[2]": {"system": "HepG2 CYP2C19", "test": "Competitive coincubation of [18F]1 with competitors, HepG2 CYP2C19", "settings": "1 h, competitor 10 µM", "method": "as §1, §2, §3\nFigure 7 Coincubation of [^18F]1 and different competitors with (A) HepG2 CYP1A2 and (B) HepG2 CYP2C19. […] Each competitor/inhibitor was incubated with [^18F]1 for 1 h followed by radio-TLC analysis. […]"}, "[3]": {"system": "HepG2 cells", "test": "Testosterone control incubation (conversion to androstenedione), LC-MS/MS", "settings": "2.5 µM testosterone; within 2 h; 3 × 10^5 cells/well in 96-well plate", "description": "Testosterone (SIGMA-ALDRICH, Taufkirchen, Germany) was dissolved in pure ethanol. Control incubations with testosterone were carried out for 2 h with 2.5 µM testosterone, 0.05% ethanol, and a total volume of 150 µL in the cavities of a 96-well plate. The supernatant was prepared and analyzed by UPLC–MS/MS (System 2; 45% isocratic elution). Testosterone was monitored at transitions for [M + H]^+ 289.24 > 97.08 and 289.24 > 109.05 with cone voltage 52 V and collision energy 20 V, while the CYP-mediated metabolite androstenedione was monitored at transitions for [M + H]^+ 287.22 > 97.08 (collision energy 18 V) and 287.22 > 109.05 (collision energy 20 V) with a cone voltage of 50 V each."}}}
{"smiles": "Cn1c(=O)c2c(ncn2C)n(C)c1=O", "note": "[caffeine]", "values": [{"measurement": "Effect of coincubation on metabolic profile / intact [18F]1 (in words)", "setting": "[1]", "value": "no change in the metabolic profile"}]}
{"smiles": "Cc1ccc(-c2cc(CCF)nn2-c2ccc(S(C)(=O)=O)cc2)cc1", "note": "[compound 3]", "values": [{"measurement": "Effect of coincubation on metabolic profile / intact [18F]1 (in words)", "setting": "[1]", "value": "slightly increased the intact tracer amount"}]}
{"smiles": "CC(=O)[C@H]1CC[C@H]2[C@@H]3CCC4=CC(=O)CC[C@]4(C)[C@H]3CC[C@]12C", "note": "[progesterone]", "values": [{"measurement": "Increase of intact tracer [18F]1 versus incubation without additional substances", "setting": "[2]", "value": "twofold"}, {"measurement": "Effect of coincubation on metabolic profile / intact [18F]1 (in words)", "setting": "[1]", "value": "no change in the metabolic profile"}]}
{"smiles": "C[C@]12CC[C@H]3[C@@H](CCC4=CC(=O)CC[C@@]43C)[C@@H]1CC[C@@H]2O", "note": "[testosterone]", "values": [{"measurement": "Effect of coincubation on intact [18F]1 amount (in words)", "setting": "[2]; testosterone 1–50 µM", "value": "slight increase in the amount of intact radiotracer"}, {"measurement": "Testosterone consumed", "setting": "[3]", "value": "more than 50%"}, {"measurement": "Effect of coincubation on metabolic profile / intact [18F]1 (in words)", "setting": "[1]", "value": "no change in the metabolic profile"}]}
